Patent publication US20080311601A1, “Methods for Prediction and Prognosis of Cancer, and Monitoring Cancer Therapy” (priority 2005, published 2008)

Test system: VEGF
Test: VEGF ELISA on plasma from renal cell carcinoma patients treated with Sorafenib
Assay type: in vivo, human
Method: Duplicate samples were used to measure the VEGF level using a VEGF ELISA (R&D Systems, Minneapolis, Minn.) per the manufacturers directions. The mean value of the duplicate measurements was determined for each patient.

CNC(=O)c1cc(Oc2ccc(NC(=O)Nc3ccc(Cl)c(C(F)(F)F)c3)cc2)ccn1 [Sorafenib]
Median VEGF (Baseline (pretreatment)): 237.4 pg/mL | Median VEGF (Cycle 1 Day 21): 301.6 pg/mL | Median VEGF (Cycle 3 Day 1): 309.0 pg/mL | change of VEGF levels from baseline (at both time points (Cycle 1 Day 21, Cycle 3 Day 1), p<<0.01, paired t-test): increase significantly from baseline
